# Data reported in patent EP4159870A1, “SYSTEM FOR THE DETECTION OF INHIBITORS IN MILK” (Analytik in Milch Produktions- und Vertriebs-GmbH, priority 2021, dated 2023).
# Legend:
# A. pallidus MHI 3391 [1] = assay: FQ-BRT test system, detection of inhibitors in spiked milk samples; format: cell-based; settings: for test result in the FQ-BRT: spiked milk samples at concentrations at the level of the respective MRL; for detection at the detection level: incubation extended by two hours; for Detection at concentration: plates incubated for additional four hours relative to discoloration time of the negative control
# Method: A. pallidus MHI 3391 was used as the indicator bacteria, endospores were used with a spore count of 1.56 × 10^7 cfu/ml growth medium, the growth medium used was based on BRT basis medium comprising a brilliant black concentration of 100 mg/l, 100 µg/l MOX and 8000 µg/l 8-hydroxyquinoline, adjusted to a pH of 8.5. In the following, this test system will be referred to as FQ-BRT. The incubation of the FQ-BRT was carried out in a water bath at 61 ± 1 °C.
# The detection limits determined during the photometric and visual evaluation of test plates are shown in Figure 8 based on positive and negative control (CCβ A and CCβ B) derived from quality curves generated using the logistic regression model.
# Discoloration of the negative control on test plates of the FQ-BRT using an UHT milk negative control was observed after an incubation of 302 ± 35 min.
# A. pallidus MHI 3391 [2] = assay: BRT microbial test system with additives in the growth medium, A. pallidus indicator strain; format: cell-based; settings: for Concentrations detected in spiked milk samples: growth medium with 100 µg/l MOX; for incubated longer than corresponding control plates: additive in growth medium: 100 µg/l CIP, 100 µg/l MOX
# Method: (§1) The medium was prepared with one additive each. The evaluation of an increase in sensitivity and incubation time until complete discoloration of the negative control was performed by comparison with corresponding control medium, spore suspensions from the same batches and an equivalent number of spores.
# (§2) Microbial test systems were prepared according to methods L 01.01-5 (January 2012) and L 01.00-11 (December 2002) ASU. 6.85 g BRT basis medium comprising about 1.5 g/l meat extract, about 3.0 g/l yeast extract, about 4.0 g/l casein peptone, about 6.0 g/l meat peptone, about 1.0 g/l D(+)-glucose, about 10 ml/l trimethoprim solution, and about 10 to […] dissolved in 250 ml distilled water and autoclaved.
# (§3) The medium was tempered to 65 °C. 6.25 ml of sterile-filtered brilliant black solution (4 mg/ml, in dist. aqua) and medium additives and the spore suspension was added. The volume of spore suspension to be used was calculated on the basis of the desired spore number [cfu/ml] and the determined spore number of the spore suspension. The spore suspension was adjusted to a volume corresponding to 0.4 to 6 % v/v of the growth medium by dilution in Ringer's solution or by centrifugation (6,000 × g, RT, 10 min).
# (§4) 100 µl growth medium per well was aliquoted into 96-well microtiter plates, the test system plates were solidified under the sterile bench for at least 30 min, the test system plates were sealed with adhesive foil and stored at 4 °C with the bottom surface facing upwards.
# [3] = milk samples, after heating for 20 min at 120 °C; cited from earlier work
# [4] = test system: G. stearothermophilus C953 (DSM 1550); assay: BRT microbial test system with additives in the growth medium, G. stearothermophilus indicator strain; format: cell-based; settings: for longer incubation time until complete discoloration of the negative control: additive in growth medium: 200 µg/l CIP, 150 µg/l MOX, versus control plates
# Method: as §1, §2, §3, §4
# A. pallidus MHI 3391 [5] = assay: microbe, parasite or virus in culture
# [6] = test system: G. stearothermophilus C953 (DSM 1550); assay: microbe, parasite or virus in culture; settings: Geobacillus stearothermophilus, DSM1550
# [7] = test system: G. stearothermophilus C953 (DSM 1550); assay: BRT test system with Ca-DPA-activated spore suspensions; format: cell-based; settings: Ca-DPA-activated spores versus control plates
# Method: (§5) 120 mM DPA stock solution was prepared in Tris-base and diluted in a 20-80 mM CaCl2 solution to obtain a Ca-DPA working solution before use. A spore suspension was adjusted to a specific spore count of 1.56 × 10^7 cfu/ml and a Ca-DPA concentration of 40 mM with Ca-DPA working solution and Ringer's solution. The spore suspension was incubated for 3 h in a thermal shaker at 55 °C and 350 rpm.
# A. pallidus MHI 3391 [8] = assay: as above; format: cell-based; settings: Ca-DPA-activated spores versus control plates
# Method: as §5
# A. pallidus MHI 3390 = assay: as above; format: cell-based; settings: Ca-DPA-activated spores versus control plates
# Method: as §5
# [9] = test system: A. thermoaerophilus MHI 3397; assay: as above; format: cell-based; settings: Ca-DPA-activated spores versus control plates
# Method: as §5
# [10] = test system: B. thermoamylovorans MHI 3373; assay: as above; format: cell-based; settings: Ca-DPA-activated spores versus control plates without Ca-DPA activation
# Method: as §5
# [11] = 8-hydroxyquinoline at 250, 500, 1000, 2000 and 4000 µg/l in basic growth medium
compound,measurement,setting,value
CCOc1ccc2ccccc2c1C(=O)N[C@@H]1C(=O)N2[C@@H]1SC(C)(C)[C@@H]2C(=O)O [nafcillin],test result in the FQ-BRT,A. pallidus MHI 3391 [1],intermediate test results
CO/N=C(\C(=O)N[C@@H]1C(=O)N2C(C(=O)[O-])=C(C[n+]3cccc4c3CCCC4)CS[C@H]12)c1csc(N)n1 [cefquinome],test result in the FQ-BRT,A. pallidus MHI 3391 [1],intermediate test results
CCN1CCN(C(=O)N[C@@H](C(=O)N[C@@H]2C(=O)N3C(C(=O)O)=C(CSc4nnnn4C)CS[C@H]23)c2ccc(O)cc2)C(=O)C1=O [cefoperazone],test result in the FQ-BRT,A. pallidus MHI 3391 [1],intermediate test results
"CCN1CCN(c2cc3c(cc2F)c(=O)c(C(=O)O)cn3C2CC2)CC1 [ENR, enrofloxacin]",Concentrations detected in spiked milk samples,A. pallidus MHI 3391 [2],100 µg/kg
same,degradation,[3],5%
same,detection at the detection level,A. pallidus MHI 3391 [1],100 µg/kg
same,Detection at concentration,A. pallidus MHI 3391 [1],100 µg/kg
"CN1CCN(c2c(F)cc3c(=O)c(C(=O)O)cn4c3c2OCN4C)CC1 [MAR, marbofloxacin]",Concentrations detected in spiked milk samples,A. pallidus MHI 3391 [2],75 µg/kg
same,detection sensitivity,A. pallidus MHI 3391 [1]; incubation extended by three hours,100 µg/kg
same,detection at the detection level,A. pallidus MHI 3391 [1],75 µg/kg
Cc1onc(-c2ccccc2)c1C(=O)N[C@@H]1C(=O)N2[C@@H]1SC(C)(C)[C@@H]2C(=O)O [oxacillin],test result in the FQ-BRT,A. pallidus MHI 3391 [1],intermediate test results
gentamicin,test result in the FQ-BRT,A. pallidus MHI 3391 [1],positive test result
Cc1onc(-c2c(Cl)cccc2Cl)c1C(=O)N[C@@H]1C(=O)N2[C@@H]1SC(C)(C)[C@@H]2C(=O)O [dicloxacillin],test result in the FQ-BRT,A. pallidus MHI 3391 [1],intermediate test results
"COc1c(N2C[C@@H]3CCCN[C@@H]3C2)c(F)cc2c(=O)c(C(=O)O)cn(C3CC3)c12 [MOX, moxifloxacin]",longer incubation time until complete discoloration of the negative control,[4],18 ± 0 min
same,incubated longer than corresponding control plates,A. pallidus MHI 3391 [2],62 ± 31 min
Oc1cccc2cccnc12 [8-hydroxyquinoline],improvement in detection sensitivity,[4]; [11],no improvement in detection sensitivity
same,reduction in incubation time,[4]; addition of 8-hydroxyquinoline,not observed
same,Incubation time reduced by,A. pallidus MHI 3391 [2]; 8000 µg/l 8-hydroxyquinoline added to growth medium comprising 100 µg/l MOX,70 ± 16 min
same,improvement in detection sensitivity,A. pallidus MHI 3391 [2]; [11],no improvement in detection sensitivity
same,Incubation time reduced by,A. pallidus MHI 3391 [2]; addition of 2000 µg/l 8-hydroxyquinoline to basic growth medium,66 ± 0 min
same,Incubation time reduced by,A. pallidus MHI 3391 [2]; addition of 4000 µg/l 8-hydroxyquinoline to basic growth medium,94 ± 7 min
same,decrease in incubation time,A. pallidus MHI 3391 [2]; combination of 8000 µg/l 8-hydroxyquinoline and 100 µg/l CIP,17 ± 4 min
same,MIC,A. pallidus MHI 3391 [5],8 µg/mL
same,MIC,[6],4 µg/mL
calcium dipicolinic acid [Ca-DPA],"increase in incubation time, mean difference",[7],139 ± 42 min
same,"increase in incubation time, mean difference",A. pallidus MHI 3391 [8],164 ± 52 min
same,"increase in incubation time, mean difference",A. pallidus MHI 3390,139 ± 29 min
same,effect on incubation duration,[9],No effect on incubation duration
same,shorter incubation time,[10],23 ± 2 min
"CN1C[C@@H]2C[C@H]1CN2c1cc2c(cc1F)c(=O)c(C(=O)O)cn2C1CC1 [DAN, danofloxacin]",Concentrations detected in spiked milk samples,A. pallidus MHI 3391 [2],120 µg/kg
CC[C@H]1OC(=O)C[C@@H](O)[C@H](C)[C@@H](O[C@@H]2O[C@H](C)[C@@H](O[C@H]3C[C@@](C)(O)[C@@H](O)[C@H](C)O3)[C@H](N(C)C)[C@H]2O)[C@@H](CC=O)C[C@@H](C)C(=O)/C=C/C(C)=C/[C@@H]1CO[C@@H]1O[C@H](C)[C@@H](O)[C@@H](OC)[C@H]1OC [tylosin],test result in the FQ-BRT,A. pallidus MHI 3391 [1],positive test result
neomycin,test result in the FQ-BRT,A. pallidus MHI 3391 [1],positive test result
"O=C(O)c1cn(C2CC2)c2cc(N3CCNCC3)c(F)cc2c1=O [CIP, ciprofloxacin]",effect of addition to growth medium on detection sensitivity,"[4]; additive in growth medium: 50 µg/l CIP, 75 µg/l MOX, 100 µg/l LEV",not associated with an increased sensitivity
same,longer incubation time until complete discoloration of the negative control,[4],32 ± 10 min
same,concentration detected in spiked milk samples,"[4]; growth medium comprising 100 or 200 µg/l CIP, 100, 125 or 150 µg/l MOX, or 200 µg/l LEV",200 µg/kg
same,incubated longer than corresponding control plates,A. pallidus MHI 3391 [2],17 ± 7 min
same,Concentrations detected in spiked milk samples,A. pallidus MHI 3391 [2],50 µg/kg
same,concentration detected,A. pallidus MHI 3391 [2]; growth medium with addition of 100 µg/l CIP,100 µg/kg
same,detection at the detection level,A. pallidus MHI 3391 [1],100 µg/kg
same,Detection at concentration,A. pallidus MHI 3391 [1],50 µg/kg
